Reference: patent US6700013B2, “Tricyclic fused heterocycle compounds, process for preparing the same and use thereof” (Nippon Suisan Kaisha, Ltd., priority 1999, dated 2004)

Assays:
[1] = tested on: pig tracheal smooth muscles; assay: Dilating action on contraction of tracheal smooth muscles (high K+ contraction, Magnus tube); conditions: Sus scrofa, 2 h; K+ contraction (72.7 mM); test substance final concentration 10 μM; two hours after addition; tension before addition = 100%; read-out: Relative Contraction Force (%)
Text: With the use of pig tracheal muscles, the action of the compounds of the present invention on contraction of tracheal muscles has been investigated. The method refers to “Smooth Muscle Manual” (published by Bun'eido Publishing Co.), pp. 125-137. The trachea cartilage mucous membrane and submucous tissue of a pig trachea were removed to prepare a specimen of tracheal smooth muscles having a major diameter of about 10 mm and a minor diameter of about 1.5 mm. This specimen was suspended in a Magnus tube which was aerated with a mixed gas of 95% of oxygen and 5% of carbon dioxide and contained nutrient solution at 37° C. and a load of 0.8 g was applied to this specimen, and after the tension of the specimen was stabilized, the nutrient solution was replaced with a high concentration K^+ solution (72.7 mM) to provoke K^+ contraction. The procedure of replacing the solution in the Magnus tube with the nutrient solution to wash the solution and provoking K^+ contraction with the high concentration K^+ solution was repeated again until the contraction force became constant. When the tension of the K^+ contraction became constant, each of the compounds described in Table 19 (the structural formula of the Comparative Example being described in the right side of the compound of the above described Example 180) was added to the high concentration K^+ solution as the test substance to measure the change in tension. The test substance was dissolved in dimethyl sulfoxide at a predetermined concentration and added to the high concentration K^+ solution in such a manner that the final concentration came to 10 μM. The trachea cartilage mucous membrane and submucous tissue of a pig trachea were removed to prepare a specimen of tracheal smooth muscles having a major diameter of about 10 mm and a minor diameter of about 1.5 mm. This specimen was suspended in a Magnus tube which was aerated with a mixed gas of 95% of oxygen and 5% of carbon dioxide and contained nutrient solution at 37° C. and a load of 0.8 g was applied to this specimen, and after the tension of the specimen was stabilized, the nutrient solution was replaced with a high concentration K+ solution (72.7 mM) to provoke K+ contraction. The procedure of replacing the solution in the Magnus tube with the nutrient solution to wash the solution and provoking K+ contraction with the high concentration K+ solution was repeated again until the contraction force became constant. When the tension of the K+ contraction became constant, each of the compounds described in Table 19 (the structural formula of the Comparative Example being described in the right side of the compound of the above described Example 180) was added to the high concentration K+ solution as the test substance to measure the change in tension. The test substance was dissolved in dimethyl sulfoxide at a predetermined concentration and added to the high concentration K+ solution in such a manner that the final concentration came to […]. Further, the final concentration of dimethyl sulfoxide added was made 0.3% or less. The change in tension was led to a strain pressure amplifier (“AP-621G3”, manufactured by Nippon Koden Kogyo) through a FD pickup transducer (“TB-611T”, manufactured by Nippon Koden Kogyo) and recorded on a recorder (“R-64V”, manufactured by Rika Electric). When the tension before replacement with the high concentration K+ solution was regarded as 0% and the last tension which was generated by the high concentration K+ solution before the addition of a test substance was regarded as 100%, the contraction force of the tracheal smooth muscle two hours after addition of a test substance was shown as relative percentage. […]

Sprague-Dawley line rats = assay: Toxicity study of two-week repeated-dose oral administration with rats; assay type: in vivo; conditions: male, oral, 0, 125 and 500 mg/kg/day repeatedly for two weeks
Method: In order to study the toxicity by repeated-dose administration of compounds, the compounds were dosed orally to Sprague-Dawley line rats (three male rats per group) with 0, 125 and 500 mg/kg/day (a 0.5 w/v % CMC-Na solution) repeatedly for two weeks.

**Q.** Which activity at 10 µM [1] does the source give for `Oc1cc(O)c2c(c1)Sc1cccc(Cl)c1CC2` [Example 27] here?
**A.** The activity at 10 µM was 1.4%.

**Q.** What about the melting point of the same compound?
**A.** Its melting point is 127.3 to 130.7 °C.

**Q.** For `O=C1Cc2ccc(-c3ccco3)cc2Sc2cc(O)cc(O)c21` [Example 82], which activity at 10 µM [1] is on record?
**A.** The activity at 10 µM was 22.4%.

**Q.** What about the melting point of the same compound?
**A.** The melting point was 234.9 to 238.8 °C.

**Q.** For `CC1C(=O)c2cc(O)c(O)cc2Sc2ccccc21` (stereo not shown) [Example 37], which activity at 10 µM [1] is on record?
**A.** Its activity at 10 µM is 7.5%.

**Q.** What does the source list for `O=C1Cc2c(Cl)cccc2Sc2cc(O)cc(O)c21` [Example 17]?
**A.** activity at 10 µM [1]: 0%; melting point: > 200 °C (dec.)

**Q.** Which results are given for `Oc1cc(O)c2c(c1)Sc1cc(-c3ccco3)ccc1CC2` [Example 124]?
**A.** activity at 10 µM [1]: 30.3%; melting point: 148.5 to 149.6 °C

**Q.** For `Oc1cc(O)c2c(c1)Oc1cc(-c3cccs3)ccc1CC2` [Example 110], which activity at 10 µM [1] is on record?
**A.** The activity at 10 µM was 10.9%.

**Q.** And the melting point?
**A.** The melting point was 194.2 to 195.6 °C.

**Q.** Which “Results (toxicity findings)” value (Sprague-Dawley line rats) does the source give for `Oc1cc(O)c2c(c1)Sc1ccccc1CC2` [Comparative Example, reference compound] here?
**A.** Its value is “Kidney damage were observed with”.

**Q.** And the activity at 10 µM [1]?
**A.** Its activity at 10 µM is 54.5%.
